Assay results: patent US20060127315A1, “Methods of treating humans undergoing injection of a contrast agent” (SHIVA BIOMEDICAL, L.L.C., priority 2004, published 2006)

Test: Pharmacokinetics of deferiprone, single oral dose crossover study in subjects with mild renal insufficiency
Type: in vivo, human
Conditions: patients with mild to moderate renal insufficiency
Method: Blood samples were collected immediately prior to and for a period of 48 hours after each dose and the concentrations of deferiprone determined.

SMILES: Cc1c(O)c(=O)ccn1C [deferiprone, 1,2-dimethyl-3-hydroxy-pyrid-4-one]
- pharmacokinetic profile compared with patients with normal renal function: very similar to that reported with patients with normal renal function
